Assay results from paper PMC9603770, “Broad-Spectrum Inhibitors against Class A, B, and C Type β-Lactamases to Block the Hydrolysis against Antibiotics: Kinetics and Structural Characterization” (Microbiology Spectrum, 2022).

Tests used:
KPC-2 = target: T1, KPC-2 (Klebsiella pneumoniae, UniProt Q9F663); assay: Fluorescence quenching; type: binding; details: 298 K
T1 construct: made in house; host or cells: E. coli (DH5 and BL21(DE3) named; pET-28a)
Experimental: (§1) Fluorescence quenching can be either dynamic or static in nature. The fluorescence intensity was calculated to understand the mechanism of protein quenching from all three classes of β-lactamase with D63, D2148, and D2573. The KSV (Stern–Volmer quenching constant; [Q] is the concentration of inhibitor) of all protein-inhibitor complexes was calculated from the slope of plot Fo/F (fluorescence intensities in the absence and presence of quencher) versus [Q], whereas number of binding sites (n) and Kb values for all combinations of proteins and inhibitors were determined by the slope and intercept of plot log (Fo/F – 1) versus log[Q] (Table 9).
(§2) A Shimadzu RF-5301PC spectrofluorometer (Shimadzu Corporation, Kyoto, Japan) was used to measure the fluorescence spectra. Quenching was observed by measuring intrinsic fluorescence at 295 nm between 300 and 400 nm. The emission and excitation slits were both adjusted to 5 nm. Then, 2 μM each D2573, D2148, and D63 were added to a 3-mL sample containing 2 μM protein ([…]). All the fluorescence intensities were corrected for the inner filter effect. The determination of the number of binding sites (n) and binding constant (Kb) at 298 K temperature for all the protein-inhibitor combinations from the Stern-Volmer equation and modified Stern-Volmer equation (equations 4 and 5). (4) (F0)/F = 1 + Ksv[Q] (5) Log (F0 − F)/F= logKb + n log[Q]
(§3) Fo and F are the fluorescence intensities in the absence and presence of quencher (D63, D2148, D2573).

NDM-1 = target: T2, NDM-1 (Klebsiella pneumoniae, UniProt C7C422); assay: Fluorescence quenching; type: binding; details: 298 K
T2 construct: made in house; host or cells: E. coli (DH5 and BL21(DE3) named)
Experimental: as §1, §2, §3

CTX-M-15 = target: T3, CTX-M-15 (Escherichia coli, UniProt Q9EXV5); assay: Fluorescence quenching; type: binding; details: 298 K
T3 construct: made in house; host or cells: E. coli (DH5 and BL21(DE3) named)
Experimental: as §1, §2, §3

SHV-1 = target: T4, SHV-1 (Klebsiella pneumoniae, UniProt P0AD64); assay: Fluorescence quenching; type: binding; details: 298 K
T4 construct: made in house; host or cells: E. coli (DH5 and BL21(DE3) named; pET-28a)
Experimental: as §1, §2, §3

TEM-1 = target: T5, TEM-1 (Escherichia coli, UniProt P62593); assay: Fluorescence quenching; type: binding; details: 298 K
T5 construct: made in house; host or cells: E. coli (DH5 and BL21(DE3) named; pET-28a)
Experimental: as §1, §2, §3

Amp-C = target: T6, Amp-C (Escherichia coli, UniProt P00811); assay: Fluorescence quenching; type: binding; details: 298 K
T6 construct: made in house; host or cells: E. coli (DH5 and BL21(DE3) named; pET-28a)
Experimental: as §1, with “9). In this study, the KSV values were obtained, on the order of 10^2 to 10^5, for all enzyme-inhibitor complexes.” for “9).”
as §2, §3

[1] = tested on: β-lactamase-producing clones; assay: MIC fold reduction of meropenem in combination with inhibitor (discussion summary); type: cell-based, Escherichia coli
From the text: The combination of D2573 with cephalosporins (cefotaxime plus D2573 and cefoxitin plus D2573) or the combination of D2148 with cephalosporins (cefotaxime plus D2148 and cefoxitin plus D2148) or the combination of D63 with cephalosporins (cefotaxime plus D63 and cefoxitin plus D63) had […] MICs than the control. […] The MIC and MBC data are in harmony with in silico data which concluded that three potential inhibitors, D2573, D2148, and D63, are potential candidates against broad-spectrum β-lactamase-producing bacterial strains.
The MICs of various antibiotics in combination with selected inhibitors were determined on DH5α cells and clinical strains (AK-10, AK-12,AK-18, NP-6, AK-67, AK-66) using the microdilution method; Clinical and Laboratory Standards Institute (CLSI) guidelines were used to interpret the results ([37], [38]). In a series of 2-fold dilutions, E. coli cells were given escalating doses of antibiotics from 0 to 512 μg/mL.

MTT cytotoxicity assay = type: cell-based; details: mouse, NIH 3T3 cells, 50 μg/mL, read-out: cellular viability
Experimental: (§4) Cytotoxicity of lead molecules D2573, D2148, and D63 on NIH 3T3 cells was evaluated by MTT assay. The relative cellular viability of NIH 3T3 cells in the presence of each sample D2573, D2148, and D63 at different concentrations (12.5 μg/mL, 25 μg/mL, and 50 μg/mL) is shown in Fig. 6.
(§5) A cytotoxicity experiment was performed on NIH 3T3 cells. The NIH 3T3 cells were grown at 37°C in Dulbecco’s modified Eagle’s medium (DMEM) supplemented with 10% fetal bovine serum (FBS) and 1% antibiotic, penicillin-streptomycin (pen-strep), in a humidified incubator with 5% CO2. Sterile conditions were maintained at all times. Cells (~10^5 cells/well) were seeded in 96-well plates and allowed to adhere overnight. The cells were subsequently given different quantities of the lead compounds D2573, D2148, and D63 (12.5 μg/mL, 25 μg/mL, and 50 μg/mL, respectively). A conventional 3-(4,5-dimethylthiazol-2-yl)-2,5-diphenyl tetrazolium bromide (MTT) test was used to measure cell survival after 24 h. The supernatants were removed, and each well was filled with 90 μL of new medium and 10 μL of MTT (1 mg/mL) solution, which was then incubated for 4 h at 37°C. The formazan crystals generated during the reduction of MTT were dissolved in 150 μL of dimethyl sulfoxide (DMSO), and the absorbance was measured by measuring the optical density using a spectrophotometer at a wavelength of 570 nm.

NIH 3T3 cells = assay: MTT cytotoxicity assay; type: cell-based; details: 24 h; for cellular viability: 50 μg/mL; for cytotoxicity (result in words): up to 50 μg/mL
Experimental: as §4, §5

T4 sequence (P0AD64 22-286): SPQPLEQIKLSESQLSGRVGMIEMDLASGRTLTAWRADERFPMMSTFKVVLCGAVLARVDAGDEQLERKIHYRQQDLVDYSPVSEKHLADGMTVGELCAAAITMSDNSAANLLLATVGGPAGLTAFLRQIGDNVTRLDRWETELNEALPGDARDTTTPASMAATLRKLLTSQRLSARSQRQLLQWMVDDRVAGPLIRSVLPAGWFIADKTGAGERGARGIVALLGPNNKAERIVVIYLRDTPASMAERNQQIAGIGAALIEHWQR
T5 sequence (P62593 24-286 limits assumed): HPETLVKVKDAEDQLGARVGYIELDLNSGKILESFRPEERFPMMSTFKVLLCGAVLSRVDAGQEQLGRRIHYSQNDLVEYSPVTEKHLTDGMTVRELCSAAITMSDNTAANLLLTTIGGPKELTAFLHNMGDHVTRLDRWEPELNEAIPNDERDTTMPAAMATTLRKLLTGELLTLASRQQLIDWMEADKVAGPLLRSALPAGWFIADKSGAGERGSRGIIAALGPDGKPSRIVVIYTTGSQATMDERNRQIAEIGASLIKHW
T3 sequence (Q9EXV5 29-291, species assumed): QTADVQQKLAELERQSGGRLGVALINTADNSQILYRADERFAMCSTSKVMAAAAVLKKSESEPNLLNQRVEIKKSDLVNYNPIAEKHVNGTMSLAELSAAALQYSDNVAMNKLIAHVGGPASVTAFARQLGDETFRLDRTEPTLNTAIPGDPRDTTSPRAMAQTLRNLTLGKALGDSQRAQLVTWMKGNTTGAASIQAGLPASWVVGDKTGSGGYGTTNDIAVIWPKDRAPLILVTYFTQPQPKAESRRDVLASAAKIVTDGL
T1 sequence (Q9F663 25-293, looked up, species assumed): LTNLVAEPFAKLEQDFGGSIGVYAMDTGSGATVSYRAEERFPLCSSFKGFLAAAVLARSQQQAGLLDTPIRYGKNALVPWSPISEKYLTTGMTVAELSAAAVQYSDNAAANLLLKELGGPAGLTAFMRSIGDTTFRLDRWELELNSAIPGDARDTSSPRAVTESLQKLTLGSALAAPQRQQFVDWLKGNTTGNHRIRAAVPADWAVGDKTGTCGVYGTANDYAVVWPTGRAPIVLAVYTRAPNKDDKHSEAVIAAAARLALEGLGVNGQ
T6 sequence (P00811 20-377): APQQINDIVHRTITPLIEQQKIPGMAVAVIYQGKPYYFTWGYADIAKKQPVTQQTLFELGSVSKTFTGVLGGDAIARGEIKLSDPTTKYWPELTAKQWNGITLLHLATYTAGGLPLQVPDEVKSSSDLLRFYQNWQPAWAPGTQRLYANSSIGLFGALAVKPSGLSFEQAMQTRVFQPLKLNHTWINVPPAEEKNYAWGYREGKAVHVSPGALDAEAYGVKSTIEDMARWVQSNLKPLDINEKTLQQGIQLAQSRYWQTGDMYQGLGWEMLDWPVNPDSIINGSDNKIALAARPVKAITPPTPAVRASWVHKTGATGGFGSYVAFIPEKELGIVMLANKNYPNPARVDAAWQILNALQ
T2 sequence (C7C422 29-270, looked up, species assumed): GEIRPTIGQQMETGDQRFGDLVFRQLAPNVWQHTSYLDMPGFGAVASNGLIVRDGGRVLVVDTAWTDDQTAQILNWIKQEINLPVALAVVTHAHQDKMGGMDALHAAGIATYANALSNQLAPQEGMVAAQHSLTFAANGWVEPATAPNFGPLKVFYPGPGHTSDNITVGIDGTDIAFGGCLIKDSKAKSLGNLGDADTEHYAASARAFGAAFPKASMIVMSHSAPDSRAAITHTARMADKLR

| Compound | n (number of binding sites) (KPC-2) | n (number of binding sites) (NDM-1) | n (number of binding sites) (CTX-M-15) | n (number of binding sites) (SHV-1) | n (number of binding sites) (TEM-1) | n (number of binding sites) (Amp-C) | Reduction of MIC of meropenem in combination with inhibitor ([1]; class A β-lactamases) | Reduction of MIC of meropenem in combination with inhibitor ([1]; class B and C β-lactamases) | viability at 24 h, 50 μg/mL (MTT cytotoxicity assay) | cellular viability (NIH 3T3 cells) | cytotoxicity (result in words) (NIH 3T3 cells) | Reduction of MIC of meropenem in combination with inhibitor ([1]; all selected β-lactamase enzymes) |
| --- | --- | --- | --- | --- | --- | --- | --- | --- | --- | --- | --- | --- |
| O=C(CN1C(=O)c2ccccc2S1(=O)=O)c1ccc(O)c(O)c1 [D63, 2-[2-(3,4-dihydroxyphenyl)-2-oxoethyl]-1H-1,2-benzisothiazole-1,1,3(2H)-trione] | 0.33 | 1.6673 | 1.9313 | 0.4791 | 0.4298 | 0.8493 | 2 fold | 4 fold | ~78% | > 75% | nontoxic |  |
| O=C(c1ccccc1)C1CCN(C(=O)CN2C(=O)c3ccccc3C2=O)CC1 [D2148, 2-[2-(4-benzoylpiperidino) -2-oxoethyl]-1H-isoindole-1,3(2H)-dione] | 1.148 | 2.457 | 1.163 | 0.2952 | 0.2489 | 1.2792 | 2 fold | 4 fold | ~78% | > 75% | nontoxic |  |
| O=C(O)c1ccccc1C(=O)N1CCN(c2nc(-c3ccccc3)ns2)CC1 [D2573, 2-{[4-(3-phenyl-1,2,4-thiadiazol-5-yl)piperazino]carbonyl}benzoic acid] | 1.1315 | 0.1842 | 0.9674 | 0.7621 | 0.750 | 0.7042 |  |  | 82% | > 75% | nontoxic | 2 fold |
